Results on twelve compounds are retold here after PubChem BioAssay (NCI).

Structures are written as SMILES.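 Compound exposure: 48 hours, 5 concentrations, 96-well plates. GI50 marks 50% less growth. TGI: concentration producing complete growth inhibition.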

Some test systems named below: 786-0 renal; HOP-62 NSCLC; LOX IMVI melanoma; OVCAR-3 ovarian; RPMI-8226 leukemia; SF-268 CNS; SK-MEL-28 melanoma; SK-MEL-5 melanoma; TK-10 renal.
What all share (assay): NCI tumour cell line growth inhibition, 48 h

Regarding `ClC1=C(Cl)C(Cl)=C(Cl)C1=Cc1ccc(Cl)cc1Cl`, the GI50 in the assay on 786-0 renal is 0.241 µM; in the assay on HOP-62 NSCLC it was 0.396 µM; with LOX IMVI melanoma it was 0.184 µM; with OVCAR-3 ovarian, 0.274 µM; in the assay with RPMI-8226 leukemia it was 0.355 µM; in the assay with SF-268 CNS it was 0.308 µM. Further, the GI50 is 0.567 µM in the assay on SK-MEL-28 melanoma and 1.04 µM with SK-MEL-5 melanoma. Further, the TGI in the assay with 786-0 renal worked out at 0.618 µM; with HOP-62 NSCLC, 3.57 µM; with LOX IMVI melanoma, 0.384 µM; in the assay on OVCAR-3 ovarian it was 0.857 µM; with RPMI-8226 leukemia, 1.99 µM; in the assay on SF-268 CNS, 1.43 µM. Further, the TGI in the assay with SK-MEL-28 melanoma amounted to 2.8 µM; with SK-MEL-5 melanoma, 2.26 µM.

As for `COc1ccc2c(c1)Cc1c-2[nH]c2cc3c(cc2c1=O)OCO3`, the TGI is over 100 µM in the assay on 786-0 renal; 45.1 µM in the assay with HOP-62 NSCLC; 34.2 µM in the assay with LOX IMVI melanoma; 45.9 µM in the assay on OVCAR-3 ovarian; 35.8 µM with RPMI-8226 leukemia; over 100 µM with SF-268 CNS. Further, the TGI worked out at 53.8 µM in the assay on SK-MEL-28 melanoma, 19.4 µM with SK-MEL-5 melanoma and 83.3 µM in the assay with TK-10 renal.

`O=C(Nn1c2c(sc1=NC1CC1)C(=O)c1ccccc1C2=O)c1cc2ccc1CCc1ccc(cc1)CC2`: the GI50 was 2.75 µM in the assay with 786-0 renal; 4.28 µM in the assay on HOP-62 NSCLC; 0.966 µM in the assay with LOX IMVI melanoma; 1.53 µM in the assay with OVCAR-3 ovarian; 1.86 µM in the assay on RPMI-8226 leukemia; 2.54 µM with SF-268 CNS. Also, the GI50 is 2.4 µM in the assay on SK-MEL-28 melanoma, 1.43 µM in the assay on SK-MEL-5 melanoma and 18.4 µM in the assay on TK-10 renal. In addition, the TGI in the assay with 786-0 renal was determined as 7.93 µM; with HOP-62 NSCLC it was 17.2 µM; with LOX IMVI melanoma, 2.62 µM; in the assay with OVCAR-3 ovarian, 4.42 µM; in the assay with RPMI-8226 leukemia it was 6.47 µM; in the assay with SF-268 CNS, 11 µM. In addition, the TGI came to 5.22 µM with SK-MEL-28 melanoma, 2.76 µM in the assay with SK-MEL-5 melanoma and 34.7 µM in the assay on TK-10 renal.

Turning to `CC(C)[C@H](O)C(=O)N[C@H]1Cc2ccc3c(c2)[C@]24C5=C(N=C(O5)[C@H](C(C)C)NC1=O)c1nc(Cl)c(o1)-c1c(Cl)[nH]c5cccc(c15)-c1cccc2c1N[C@H]4O3`, the GI50 with 786-0 renal was 0.00279 µM; in the assay with OVCAR-3 ovarian, under 0.001 µM; in the assay on SF-268 CNS, under 0.001 µM; with SK-MEL-5 melanoma it was under 0.001 µM. For the same compound, the TGI in the assay on 786-0 renal is 2.77 µM; in the assay with HOP-62 NSCLC it was over 10 µM; in the assay with OVCAR-3 ovarian it was 0.00747 µM; in the assay on SF-268 CNS, 7.32 µM.

In the case of `O=C(Nc1cc([N+](=O)[O-])cc([N+](=O)[O-])c1)OC1C2CCC1C1OC1C2` (stereo not given), the TGI with 786-0 renal, in the assay on HOP-62 NSCLC, in the assay on OVCAR-3 ovarian, in the assay on RPMI-8226 leukemia, with SF-268 CNS and with SK-MEL-28 melanoma was over 50 µM in each case. The TGI in the assay on SK-MEL-5 melanoma and in the assay with TK-10 renal was over 50 µM in each case.

For `C[n+]1ccc2[nH]c3ccccc3c2c1`, the TGI with 786-0 renal, in the assay on HOP-62 NSCLC, in the assay with LOX IMVI melanoma, in the assay with OVCAR-3 ovarian, in the assay on RPMI-8226 leukemia and in the assay on SF-268 CNS was over 100 µM in each case. The TGI in the assay with SK-MEL-28 melanoma, in the assay with SK-MEL-5 melanoma and with TK-10 renal was over 100 µM in each case.

Turning to `N#CNc1nc(C(=O)Nc2ccc(Cl)cc2)cc(-c2ccccc2)n1`, the TGI in the assay with 786-0 renal, with HOP-62 NSCLC, in the assay with OVCAR-3 ovarian, in the assay with RPMI-8226 leukemia, with SF-268 CNS and in the assay on SK-MEL-28 melanoma was over 100 µM each time. The compound further showed a TGI with SK-MEL-5 melanoma of over 100 µM.

As for `Cc1cccc(NC(=O)Cc2nc3ccccc3s2)c1C`, the TGI in the assay on 786-0 renal, with HOP-62 NSCLC, in the assay with LOX IMVI melanoma, with OVCAR-3 ovarian, in the assay with RPMI-8226 leukemia and with SF-268 CNS was over 100 µM in each case. Besides, the TGI with SK-MEL-28 melanoma, with SK-MEL-5 melanoma and with TK-10 renal was over 100 µM each time.

`Cc1cc(S(=O)(=O)Nc2nc3ccsc3c(=O)n2Cc2ccccc2)c(S)cc1Cl`: the GI50 with 786-0 renal was 32.2 µM; in the assay with HOP-62 NSCLC, 22.7 µM; in the assay on LOX IMVI melanoma, 31.1 µM; in the assay on OVCAR-3 ovarian it was 24.3 µM; in the assay with RPMI-8226 leukemia, 33.4 µM; with SF-268 CNS, 30.6 µM. Also, the results for the GI50 in the assay with SK-MEL-28 melanoma, with SK-MEL-5 melanoma and in the assay with TK-10 renal were 25 µM, 12.5 µM and 29.7 µM, respectively. The TGI with 786-0 renal is over 100 µM; in the assay with HOP-62 NSCLC, 46.6 µM; in the assay on LOX IMVI melanoma, 65.3 µM; with OVCAR-3 ovarian it was 53 µM; in the assay on RPMI-8226 leukemia it was over 100 µM; in the assay on SF-268 CNS, over 100 µM. Further, the TGI in the assay with SK-MEL-28 melanoma turned out to be 57.2 µM; in the assay with SK-MEL-5 melanoma it was 34.2 µM; in the assay with TK-10 renal, 91.1 µM.

On to `N=C(N)Cn1cnc2ccccc21`, for which the TGI in the assay with 786-0 renal, with HOP-62 NSCLC, with LOX IMVI melanoma, with OVCAR-3 ovarian, in the assay on RPMI-8226 leukemia and with SF-268 CNS was over 100 µM in each case. Besides, the TGI with SK-MEL-28 melanoma, in the assay with SK-MEL-5 melanoma and in the assay on TK-10 renal was over 100 µM throughout.

In the case of `COC(=O)C1CCC(N2C(=O)CCC2C(=O)OC)=N1` (stereo not given), the TGI in the assay on 786-0 renal, in the assay on HOP-62 NSCLC, with LOX IMVI melanoma, with OVCAR-3 ovarian, in the assay on RPMI-8226 leukemia and with SF-268 CNS was over 100 µM in each case. In addition, the TGI in the assay on SK-MEL-28 melanoma and with TK-10 renal was over 100 µM in each case.

As for `CC(C)(C)n1cc(-c2ccnc(NCCCNS(=O)(=O)c3ccc(Cl)cc3)c2)c(-c2cccc(O)c2)n1`, the GI50 was 2.03 µM in the assay with 786-0 renal; 1.74 µM with HOP-62 NSCLC; 1.73 µM in the assay on LOX IMVI melanoma; 1.89 µM in the assay with OVCAR-3 ovarian; 2.18 µM with SF-268 CNS; 1.57 µM in the assay on SK-MEL-28 melanoma. Besides, the GI50 was 1.44 µM with SK-MEL-5 melanoma and 2.38 µM in the assay on TK-10 renal. The TGI is 4.54 µM in the assay with 786-0 renal; 3.52 µM in the assay with HOP-62 NSCLC; 3.15 µM with LOX IMVI melanoma; 3.72 µM with OVCAR-3 ovarian; 5.78 µM in the assay with SF-268 CNS; 3.06 µM with SK-MEL-28 melanoma. In addition, the values for the TGI in the assay with SK-MEL-5 melanoma and in the assay on TK-10 renal were 2.76 µM and 5.93 µM, respectively.
